Laboratory results published in article PMC6308302, “Identification of Pharmacokinetic Markers for Guanxin Danshen Drop Pills in Rats by Combination of Pharmacokinetics, Systems Pharmacology, and Pharmacodynamic Assays” (Frontiers in Pharmacology, 2018).
Entries after “also recorded” stand apart in the source; their conditions may differ. Marks after values point to notes of the source that are not given here. One block for each compound: values may come before it.

Assays:
[1] = Aqueous solubility test (vortexing in water); format: physicochemical; details: thermodynamic from solid; determined, water, 25 °C, 1 atm
Protocol: Aqueous solubility (S) test of the 17 ingredients was performed by vortexing 10 mg of each ingredient in […] water in a test tube at ambient temperature and 1 atm. After vortexing for 5 min, if the solution is clear, the tested object will be considered as soluble in water. In silico assessment of the physicochemical properties governing permeation and intestinal absorption was carried out for the 17 ingredients studied. Theory aqueous solubility (S) was calculated with ALOGPS 2.1 online software via the Virtual Computational Chemistry Laboratory service (Chemoinformatics Group, Neuherberg, Germany) (VCCLAB^1). The octanol–water partition coefficient (cLogP), the total hydrogen bond count (donors and acceptors), and topological polar surface area (TPSA) were determined using the Molinspiration Property Calculator (Molinspiration Cheminformatics, Bratislava, Slovak Republic^2). Lipinski’s rule of 5 was used to predict the permeability of the compound ([Lipinski et al., 2001]).

[2] = system: Caco-2 cell monolayers; details: ref Lu et al., 2008, Liu et al., 2009, Hu et al., 2014, Bowles et al., 2017, cited from earlier work; for Papp(apical→basolateral) / Papp(basolateral→apical): Caco-2 cell monolayers, from literature
[3] = Multiple component PK study in rat plasma after p.o. GDDP (HPLC-MS); details: for detection in rat plasma: at 5, 10, 15, 30, 45, or 60 min, LOD 0.5–0.7 ng/mL; for AUC(0-inf) / AUC(0-t) / MRT inf / MRT last / Tmax / Cmax / half-life: Sprague-Dawley, rat, plasma, po
[4] = system: isoprenaline-induced MI in mice; experiment: In vivo anti-MI study: isoprenaline-induced myocardial injury (ECG, H&E histology)
[5] = Stability tests in rat plasma (QC samples, HPLC-MS); details: n=5
Description: Accuracy and precision were expressed by relative error (RE) and coefficient of variance (RSD), respectively.

[6] = 24h in auto-sampler vials, spiked 2 ng/mL
[7] = 24h in auto-sampler vials, spiked 400 ng/mL
[8] = 24h in auto-sampler vials, spiked 1600 ng/mL
[9] = Placing plasma for 6h at 4°C, spiked 2 ng/mL
[10] = Placing plasma for 6h at 4°C, spiked 400 ng/mL
[11] = Placing plasma for 6h at 4°C, spiked 1600 ng/mL
[12] = three freeze-thaw cycles, rat plasma, spiked 2 ng/mL
[13] = three freeze-thaw cycles, rat plasma, spiked 400 ng/mL
[14] = three freeze-thaw cycles, rat plasma, spiked 1600 ng/mL

solubility at 5 min [1]: > 10000 µg/mL
SMILES: O=C(/C=C/c1ccc(O)c(O)c1)O[C@H](Cc1ccc(O)c(O)c1)C(=O)O [RA, rosmarinic acid]
Papp(apical→basolateral) [2]: 0.523^a ×10^-6 cm/s | Papp(basolateral→apical) [2]: 0.550^a ×10^-6 cm/s

SMILES: O=C(O)C(O)Cc1ccc(O)c(O)c1 (stereo not drawn) [DSS, danshensu]
detection in rat plasma at more than 15 min after administration ([3]; GDDP 0.4 and 0.8 g/kg B.W.): could not be detected | detection in rat plasma ([3]; GDDP 0.8 g/kg p.o.): could be detected | plasma level ([3]; rats, GDDP 0.4 and 0.8 g/kg, more than 15 min after administration, below LOD): < 0.5 ng/mL | solubility at 5 min [1]: > 10000 µg/mL

SMILES: CC(C)=CCC[C@](C)(O[C@@H]1O[C@H](CO)[C@@H](O)[C@H](O)[C@H]1O)[C@H]1CC[C@]2(C)[C@@H]1[C@H](O)C[C@@H]1[C@@]3(C)CC[C@H](O)C(C)(C)[C@@H]3[C@@H](O[C@@H]3O[C@H](CO)[C@@H](O)[C@H](O)[C@H]3O[C@@H]3OC[C@@H](O)[C@H](O)[C@H]3O)C[C@]12C [R1, notoginsenoside R1]
determination in rat plasma at the planned successive PK time points ([3]; GDDP 0.8 g/kg p.o., 5, 10, 15, 30, 45, 60, and 120 min, LOQ 1.0–1.4 ng/mL): could be determined | detection in rat plasma ([3]; GDDP 0.8 g/kg p.o.): could be detected | AUC(0-inf) ([3]; 0.4 g/kg): 171 ± 92.6 ng·h/mL | AUC(0-t) ([3]; 0.4 g/kg): 146 ± 58.9 ng·h/mL | MRT inf ([3]; 0.4 g/kg): 78.6 ± 6.6 min | MRT last ([3]; 0.4 g/kg): 66 ± 7.2 min | Tmax ([3]; 0.4 g/kg): 30.6 ± 42 min | Cmax ([3]; 0.4 g/kg, Cmax, rat plasma, GDDP 0.4 g/kg p.o. (Low dose group), n=3): 167 ± 48 ng/mL | half-life ([3]; 0.4 g/kg, t1/2 β, rat plasma, GDDP 0.4 g/kg p.o. (Low dose group), n=3): 34.2 min | AUC(0-inf) ([3]; 0.8 g/kg): 168 ± 119 ng·h/mL | AUC(0-t) ([3]; 0.8 g/kg): 120 ± 117 ng·h/mL | MRT inf ([3]; 0.8 g/kg): 115 ± 95.4 min | MRT last ([3]; 0.8 g/kg): 53.4 ± 8.4 min | Tmax ([3]; 0.8 g/kg): 45 min | Cmax ([3]; 0.8 g/kg, Cmax (high / low plasma drug concentrations), rats, GDDP 0.4 and 0.8 g/kg p.o., classification): > 20 ng/mL | Cmax ([3]; 0.8 g/kg, Cmax, rat plasma, GDDP 0.8 g/kg p.o. (High dose group), n=3): 259 ± 342 ng/mL | half-life ([3]; 0.8 g/kg, t1/2 β (fast / slow elimination type), rats, GDDP 0.4 and 0.8 g/kg p.o., classification): < 120 min | half-life ([3]; 0.8 g/kg, t1/2 β, rat plasma, GDDP 0.8 g/kg p.o. (High dose group), n=3): 27 min | Cltot ([3]; rat plasma, GDDP 0.4 g/kg p.o. (Low dose group), n=3): 55.7 ± 30.2 mL/min/kg | Cltot ([3]; rat plasma, GDDP 0.8 g/kg p.o. (High dose group), n=3): 181.5 ± 187.8 mL/min/kg | Histopathology of heart tissue (H&E) ([4]; 40 mg/kg p.o. for 7 days, isoprenaline-induced MI, 40 mg/kg): remarkably severe histological damage with extensive myocardial lysis and architecture wrecking; also recorded: extremely severe histological damage with extensive myocardial lysis and architecture wrecking | ECG (lead II) findings on the fifth day of the trial ([4]; 40 mg/kg p.o., isoprenaline 5 mg/kg on days 4 and 5): T waves reversed or decreased | Stability: Measured [5, 6]: 1.89 ± 0.51 ng/mL | Stability: RE [5, 6]: -5.63% | Stability: Measured [5, 7]: 395.76 ± 7.32 ng/mL | Stability: RE [5, 7]: -1.06% | Stability: Measured [5, 8]: 1619.10 ± 82.22 ng/mL | Stability: RE [5, 8]: 1.19% | Stability: Measured [5, 9]: 1.75 ± 0.34 ng/mL | Stability: RE [5, 9]: -12.56% | Stability: Measured [5, 10]: 387.55 ± 18.40 ng/mL | Stability: RE [5, 10]: -3.11% | Stability: Measured [5, 11]: 1698.54 ± 105.94 ng/mL | Stability: RE [5, 11]: 6.16% | Stability: Measured [5, 12]: 2.15 ± 0.21 ng/mL | Stability: RE [5, 12]: 7.54% | Stability: Measured [5, 13]: 395.28 ± 15.09 ng/mL | Stability: RE [5, 13]: -1.18% | Stability: Measured [5, 14]: 1784.04 ± 71.20 ng/mL | Stability: RE [5, 14]: 11.50% | solubility at 5 min [1]: > 10000 µg/mL | Papp(apical→basolateral) [2]: > 0.1^c ×10^-6 cm/s | Papp(basolateral→apical) [2]: > 0.1^c ×10^-6 cm/s | apparent permeability in Caco-2 cell monolayers ([2]; previous results): > 10^-7 cm/s
